The values below come from patent publication US20260325473A1, “N-Beta-Hydroxybutyryl-Amino Acids and Related Compositions and Methods” (The Board of Trustees of the Leland Stanford Junior …, priority 2023, published 2026).

The target of one series is T1, CNDP2 (Mus musculus, UniProt Q9D1A2).
T1 sequence (Q9D1A2 1-475): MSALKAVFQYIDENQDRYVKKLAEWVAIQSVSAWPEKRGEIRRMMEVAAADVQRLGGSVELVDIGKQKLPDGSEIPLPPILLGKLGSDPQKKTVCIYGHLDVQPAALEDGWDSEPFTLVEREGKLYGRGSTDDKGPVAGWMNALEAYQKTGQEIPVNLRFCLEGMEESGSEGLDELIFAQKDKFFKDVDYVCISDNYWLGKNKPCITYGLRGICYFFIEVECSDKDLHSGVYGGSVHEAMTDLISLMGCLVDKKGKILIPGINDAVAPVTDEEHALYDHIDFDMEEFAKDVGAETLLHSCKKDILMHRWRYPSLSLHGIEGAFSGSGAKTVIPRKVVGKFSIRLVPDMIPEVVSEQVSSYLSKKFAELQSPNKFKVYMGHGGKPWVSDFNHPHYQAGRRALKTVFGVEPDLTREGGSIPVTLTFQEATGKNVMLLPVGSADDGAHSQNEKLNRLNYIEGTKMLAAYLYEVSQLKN
Type of series: in vivo. Conditions: ketone ester drink or one week of ketogenic diet. The procedure: (§1) Preparation of plasma samples for LC-MS analysis. Plasma was collected from mice via a submandibular bleed into lithium heparin tubes (BD, 365985) and immediately transferred onto ice. The blood was centrifuged at 4° C. at 5000 rpm for 5 min and the top layer of plasma was aliquoted and frozen at −80 °C. To extract polar metabolites from plasma for LC-MS analysis, 150 μl of a 2:1 mixture of acetonitrile/methanol was added to 50 μl of plasma. The mixture was centrifuged at 4° C. for 10 min at 15,000 rpm and the supernatant was transferred to a LC-MS vial.
(§2) Targeted metabolomics. Targeted measurements were performed using an Agilent 6470 triple quadrupole LC-MS instrument. MS analysis was performed using AJS in negative mode. […] Quantification of the endogenous metabolite concentrations were performed by generating a standard curve with known concentrations of each metabolite. Metabolite standards were analyzed alongside the plasma samples using the same targeted triple quadrupole LC/MS method. […] The dilution of the plasma during the sample preparation was also taken into account for the quantification. […]

In series [1] the test system is HMGCL. Kind of series: Plasma metabolites in Alb-Hmgcl (-/-) mice. Type of series: in vivo, mouse. Conditions: fasting or ketogenic diet. The procedure:
as §1, §2

Series [2] relates to HMGCL. Conditions: fasting (24 h) or ketogenic diet (2 days); Goldberg et al.; cited from earlier work.
A short description of series [3]: Keto-Med study, plasma metabolites. Type of series: in vivo. Conditions: human; 4 weeks WFKD vs baseline. The procedure:
(§3) Targeted metabolomics. Targeted measurements were performed using an Agilent 6470 triple quadrupole LC-MS instrument. MS analysis was performed using AJS in negative mode. The AJS source parameters were set as follows: the dry gas temperature was set at 250° C. with a gas flow of 12 l/min and the nebulizer pressure at 25 psi; the sheath gas temperature was set to 300° C. with the sheath gas flow set at 12 l/min; and the capillary voltage was set to 3,500 V. Separation of polar metabolites was performed as described above in the ‘Untargeted measurements of metabolites by LC-MS’ section. Multiple reaction monitoring was performed for the indicated metabolites with the listed dwell times, fragmentor voltage, collision energies, cell accelerator voltages and polarities. Quantification of the endogenous metabolite concentrations were performed by generating a standard curve with known concentrations of each metabolite. Metabolite standards were analyzed alongside the plasma samples using the same targeted triple quadrupole LC/MS method. A calibration standard curve generated from the metabolite standard concentrations and total peak areas were used to calculate the concentrations of each endogenous metabolite. The dilution of the plasma during the sample preparation was also taken into account for the quantification.
Keto-Med study. Keto-Med was a single-site, randomized, crossover, interventional trial comparing 2 metabolically distinct diets (well-formulated ketogenic diet, WFKD; and Mediterranean-plus diet, Med-Plus) among individuals with prediabetes and T2DM. Forty participants aged ≥18 years with prediabetes or T2DM followed the WFKD and the Med-Plus for 12 weeks each, in random order. Participants were randomly assigned into 1 of 2 different diet sequences: WFKD for 12 weeks (phase 1) and then the Med-Plus for 12 weeks (phase 2), or the opposite order. Ad libitum intake was advised, and participants were guided to follow 2 sets of dietary guidelines that shared 3 important similarities (incorporating nonstarchy vegetables and avoiding added sugars and refined grains) and 3 important differences (incorporating compared with avoiding legumes, fruits, and whole, intact grains). During the WFKD phase, participants were counseled to sustain nutritional ketosis by limiting carbohydrates to 20-50 g/day and keeping proteins to ~1.5 g/kg ideal body weight/day, with the remaining kcals coming from fats. Participants were also instructed to consume >3 servings/day of nonstarchy vegetables and maintain adequate mineral and fluid intake for the ketogenic state (sodium, 3-5 g/day; potassium, 3-4 g/day). […]

A short description of series [4]: Metabolite quantitation in mouse plasma (QQQ-LC/MS). Format: in vivo. Conditions: 1 week ketogenic diet, 24 h fast, or ketone ester drink 3 g/kg. The procedure: as §1, §3
Series [5] can be described thus: Human ketone ester supplementation study, plasma metabolites. Type of series: in vivo. Conditions: 0.3 g/kg ketone ester, 60 min. The procedure:
as §3
Human ketone ester supplementation study. Following screening, eligible subjects participated in a randomized, counter-balanced, double-blind, placebo-controlled crossover trial comparing BHB supplementation versus placebo, separated by a minimum of 2 days (ClinicalTrials.gov ID NCT04194450). Pre-menopausal women were tested in the follicular phase (days 3-9). Participants were asked to refrain from structured exercise and alcohol, limit physical activity, and follow a standardized diet (~50% carbohydrate, ~30% fat, ~20% protein) on the day before each trial. After refraining from medication use for 24 hours, participants reported to the Exercise, Metabolism and Inflammation Laboratory at the University of British Columbia-Okanagan in an overnight fasted state. Anthropometric measurements were obtained prior to insertion of an indwelling intravenous catheter into the antecubital vein for repeated blood sampling. Blood was collected into EDTA tubes (BD, 367863) and immediately centrifuged at 2000 rpm for 15 min and the top layer of plasma was aliquoted and frozen at −80 °C. After baseline (0) blood sample collection, the oral BHB supplement or placebo was consumed in liquid form (~30-65 mL). The BHB supplement (H.V.M.N®, USA) in the form of the ketone monoester (R)-3-hydroxybutyl (R)-3-hydroxybutyrate (AG®, TDeltaS, Oxford, UK) contained 0.4 g mL-1 BHB, natural flavoring, and <2% stevia leaf extract. The taste-matched placebo drink contained the same natural flavoring as the ketone supplement, stevia leaf extract, 5 mL of Bittrex stock (0.005 g of denatonium benzoate powder in 40 ml of water) and 1.5 mL of arrowroot stock (2 g of arrowroot powder in 50 ml of water) to match the bitter flavor and viscosity of the ketone monoester. Supplements were dispensed into opaque 80 ml bottles with volume calculated for 0.3 g BHB/kg body weight and labelled either A or B by a third-party researcher. Blinding was maintained until completion of data collection and analyses.

The subject of series [6] is mouse tissue lysate proteins (brain, heart, quadriceps, liver). The series is described as follows: X-Phe photoprobe crosslinking in mouse tissue lysates, in-gel fluorescence. Type of series: binding. Conditions: 100 μM, UV crosslinking. The protocol:
In vitro crosslinking studies of X-Phe photoprobe. Tissues were collected from wild type C57BL/6J and homogenized using a bead blaster in PBS. The protein homogenate was filtered through a 40 μm strainer to remove any un-homogenized tissue and the lysate diluted to 2 mg/ml. Tissue lysate was incubated with 100 μM of the photoprobe and incubated on ice for 10 minutes protected from light. Reactions were then put under UV for 1 min on a UV Stratalinker. A TAMRA click reaction was performed by adding the following reagents to the indicated final concentrations: […], 1 mM CuSO4, 1 mM TCEP (freshly prepared), 25 μM TAMRA-N3. Reactions were allowed to proceed for 1 hour at room temp, protected from light. Loading buffer was added to the reactions, boiled for 10 minutes and run down a protein gel. The gel was imaged prior to staining with a coomassie dye.

As to `C[C@@H](O)CC(=O)N1CCC[C@H]1C(=O)O` [Keto-Pro], the “plasma keto amino acids in CNDP2-KO vs wild type mice” value at CNDP2 is recorded as “unaltered”. Moreover, the “plasma level in Alb-Hmgcl (-/-) mice” value in the series with HMGCL [1] is on record as “reduced in Alb-Hmgcl (−/−) mice”.
In the case of `CC(O)CC(=O)O` (stereo not drawn) [BHB, beta-hydroxybutyrate, reference compound], in the series on HMGCL [2], the “circulating BHB levels in Alb-Hmgcl (-/-) mice” value was “reductions in circulating BHB levels”. The “plasma BHB in CNDP2-KO vs WT mice” value at CNDP2 is on record as “unchanged”. Besides, in series [3], the “elevation of plasma BHB on WFKD” value is recorded as 5 fold. Besides, the “plasma BHB levels” value in series [4] was “elevated by each of these conditions”. Further, the “plasma BHB after ketone ester drink” value in series [5] is “dramatically elevated”.
As for `C#CCCC(=O)N[C@@H](Cc1ccc(N=[N+]=[N-])cc1)C(=O)O` [X-Phe photoprobe], the “labelling of tissue proteins by photoprobe” value in series [6] is given as “directly interacts with protein targets in a tissue-specific manner”.
